Experimental findings from patent publication US20060046972A1, “Cytotoxic nucleoside analog compound 003 for treating cancer” (Parker Hughes Institute, priority 2004, published 2006) are described below.

SMILES strings stand for the structures.

Data set [1] has as its system MMTV/Neu transgenic mice (spontaneous breast cancer). The data set can be described thus: Murine model of Her2 positive breast cancer, virgin MMTV/Neu transgenic mice. Type of data set: in vivo. The text has this: Overexpression of the wild type Neu in the mammary glands of transgenic mice induces metastatic breast cancer. Accordingly, in the MMTV/Neu transgenic strain, the wild-type neu is overexpressed in the mammary gland under the control of the MMTV long terminal repeat. This animal model has been used to analyze the Her2/neu overexpression in breast epithelia, as well as the efficacy of new therapeutic approaches to prevent or treat Her2/neu overexpressing malignancies.
MMTV/Neu transgenic mice were treated with Compound 003 that was added to the daily food of the mice at an average daily dose level of 50 mg/kg/day for the duration of the experiment. Mice were screened for the tumor formation every other day. Tumor-free survival was analyzed using life table statistics as previously reported. The protective anti-cancer activity of Compound 003 was evaluated according to the rise of the survival rate and prolongation of the tumor-free survival of the experimental animals as compared with the control animals. Statistical Significance was determined using the Kaplan Meier Log-Rank test.
Neu transgenic mice were mated to FVB non-transgenic mice, and heterozygous neu transgenic offspring were identified by PCR analysis. A total of 62 female neu transgenic mice were identified from the offspring. These transgenic mice were used to examine the effects of a nontoxic dose level of Compound 003 (50 mg/kg/day) on spontaneous breast cancer development in two independent experiments.
In the first experiment, 30 virgin transgenic mice were used. Treatments were initiated when female mice were 6 weeks of age. Fifteen of the 15 vehicle treated control transgenic mice developed breast cancer with a median cancer-free survival time of 224 days (Mean=253±23 days) (FIG. 7, FIG. 8A&B). At 340 days, only 20% of the mice were tumor-free and by 480 days all had developed breast cancer. The mammary gland tumors were excised, paraffin-embedded and sectioned for H+E staining. A representative tumor section from a neu transgenic mouse is shown in panel C of FIG. 8. […]

Data set [2] concerns BT20 breast cancer cell line. The data set can be described thus: Intracellular metabolism of Compound 003 to ala-AZT-MP, BT20. Type of data set: in vitro ADME, human. The note with it: 25 μM Compound 003. An excerpt: Intracellular metabolism of Compound 003 was studied in CEM T-lineage lymphoma cell line, BT20 breast cancer cell line, T98 glioblastoma cell line, and Nalm-6 B-lineage leukemia cell line. CEM and Nalm6 cells were maintained in RPMI supplemented with 10% fetal bovine serum, and 1% penicillin/streptomycin. BT20 and T98 cells w.ere cultured in a medium composed of MEM, 10% fetal bovine serum, 0.1-mM of nonessential amino acids and Earles salts, and 1% penicillin/streptomycin. CEM and Nalm6 cells at a density of 10^6 cells per ml were utilized in the drug metabolism study. BT20 and T98 cells were seeded in 6-cm petri-dishes at 4 million cells and 2 million cells per plate, respectively, the day before the experiment. Either one plate of adherent cells or 10 million non-adherent cells was utilized at each time point. Cells were incubated with various concentrations of the compounds up to 24 hrs at 37° C. After incubation, cells were washed 2 times with ice-cold PBS, and extracted by addition of 0.5-1 ml of 60% methanol. Cell lysates were kept at −20° C. overnight, after which lysates were centrifuged at 15000×g for 10 minutes to remove the cell debris. One hundred microliters of these lysates were injected directly to HPLC. For half-life study, cells at the same density as in drug metabolism study were treated with 100 μM Compound 003 for 2 hrs, after which cells were washed 2 times with ice-cold PBS, and resuspended in warm media until the time they were harvested. For uptake and efflux study, cells were seeded at 2 million cells in 2 ml of media. […] With efflux experiments, cells 1×10^6/mL (the same density as in the uptake study) were incubated with 100 μM Compound 003 for 1 hr, washed 2 times with ice-cold PBS, and resuspended with culture medium without drug, and the metabolite efflux from cells to the medium was measured after 6 hr of incubation. […]

Take `COC(=O)C(C)NP(=O)(OCC1OC(n2cc(C)c(=O)[nH]c2=O)CC1N=[N+]=[N-])Oc1ccc(OC)cc1` (stereo not shown) [Compound 003, 3′-azidothymidine 5′-[p-methoxyphenylmethoxyalaninyl phosphate]]: the median cancer-free survival in data set [1] (50 mg/kg/day in food, vehicle 224 days, P=0.0007) is 455 days. In addition, the “proportion of mice cancer-free” value in data set [1] (50 mg/kg/day, at 340 days, vehicle 20±10%) is 93±7%. For the same compound, the “proportion of mice still cancer-free” value in data set [1] (50 mg/kg/day, at 480 days, when all vehicle mice had breast cancer) is recorded as “one third”. The “time to peak intracellular metabolite concentration” value in data set [2] is listed as “within an hour”.
